Laboratory results reported in PubChem BioAssay (NCI).
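Where inhibition never reached the appropriate level, the endpoint shown equals the highest concentration tested. Otherwise, values were interpolated linearly from a five-concentration, 48-hour dose response in 96-well plates. The concentration for 50% growth inhibition is given as GI50. Definition used: TGI = concentration required for complete inhibition of growth.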

Experiments:
Experiment in all cases: NCI-60 cell line screen, 48 h
CCRF-CEM leukemia = test system: CCRF-CEM leukemia
HL-60(TB) leukemia = test system: HL-60(TB) leukemia
HCC-2998 colon = test system: HCC-2998 colon
OVCAR-4 ovarian = test system: OVCAR-4 ovarian
MOLT-4 leukemia = test system: MOLT-4 leukemia
PC-3 prostate = test system: PC-3 prostate
LOX IMVI melanoma = test system: LOX IMVI melanoma
SNB-19 CNS = test system: SNB-19 CNS
IGROV1 ovarian = test system: IGROV1 ovarian
MDA-MB-435 = test system: MDA-MB-435

SMILES: C=C1C(=O)O[C@H]2[C@H]1CC/C(COC(=O)NCc1ccc(Cn3c(=O)sn(CCCCC)c3=O)cc1)=C\CC[C@@]1(C)O[C@@H]21
- GI50 (CCRF-CEM leukemia): 0.364 µM
- TGI (CCRF-CEM leukemia): 1.67 µM
- GI50 (HL-60(TB) leukemia): 1.1 µM
- TGI (HL-60(TB) leukemia): 4.12 µM
- GI50 (HCC-2998 colon): 3.55 µM
- TGI (HCC-2998 colon): 11.1 µM
- GI50 (OVCAR-4 ovarian): 1.62 µM
- TGI (OVCAR-4 ovarian): 3.3 µM
- GI50 (MOLT-4 leukemia): 0.59 µM
- TGI (MOLT-4 leukemia): 4.06 µM
- GI50 (PC-3 prostate): 1.92 µM
- TGI (PC-3 prostate): 3.8 µM
- GI50 (LOX IMVI melanoma): 1.59 µM
- TGI (LOX IMVI melanoma): 2.96 µM
- GI50 (SNB-19 CNS): 5.06 µM
- TGI (SNB-19 CNS): 17.5 µM
- GI50 (IGROV1 ovarian): 2.11 µM
- TGI (IGROV1 ovarian): 4.8 µM
- GI50 (MDA-MB-435): 1.71 µM
- TGI (MDA-MB-435): 3.5 µM

SMILES: CCCCCCCCCc1ccc(OCCOCCOCCOCCOCCOCCOCCOCCOCCO)cc1
- GI50 (CCRF-CEM leukemia): 0.305 µM
- TGI (CCRF-CEM leukemia): 2.04 µM
- GI50 (HL-60(TB) leukemia): 0.31 µM
- TGI (HL-60(TB) leukemia): 1.37 µM
- GI50 (HCC-2998 colon): 0.75 µM
- TGI (HCC-2998 colon): 1.85 µM
- GI50 (OVCAR-4 ovarian): 0.131 µM
- TGI (OVCAR-4 ovarian): 5.04 µM
- GI50 (MOLT-4 leukemia): 0.704 µM
- TGI (MOLT-4 leukemia): 2.15 µM
- GI50 (PC-3 prostate): 0.0898 µM
- TGI (PC-3 prostate): 1.18 µM
- GI50 (LOX IMVI melanoma): 0.23 µM
- TGI (LOX IMVI melanoma): 0.996 µM
- GI50 (SNB-19 CNS): 0.617 µM
- TGI (SNB-19 CNS): 2.73 µM
- GI50 (IGROV1 ovarian): 0.999 µM
- TGI (IGROV1 ovarian): 4.32 µM
- GI50 (MDA-MB-435): 0.832 µM
- TGI (MDA-MB-435): 3.05 µM

SMILES: N=c1ccc2nc3ccc(N)cc3sc-2c1
- GI50 (CCRF-CEM leukemia): 3.55 µM
- TGI (CCRF-CEM leukemia): 35.3 µM
- GI50 (HL-60(TB) leukemia): 1.9 µM
- TGI (HL-60(TB) leukemia): 20.8 µM
- GI50 (HCC-2998 colon): 6.82 µM
- TGI (HCC-2998 colon): 97.7 µM
- GI50 (OVCAR-4 ovarian): 3.78 µM
- TGI (OVCAR-4 ovarian): 13.5 µM
- GI50 (MOLT-4 leukemia): 4.59 µM
- TGI (MOLT-4 leukemia): > 100 µM
- GI50 (PC-3 prostate): 2.56 µM
- TGI (PC-3 prostate): 15.6 µM
- GI50 (LOX IMVI melanoma): 2.72 µM
- TGI (LOX IMVI melanoma): 12.5 µM
- GI50 (SNB-19 CNS): 3.17 µM
- TGI (SNB-19 CNS): 14.9 µM
- GI50 (IGROV1 ovarian): 6.77 µM
- TGI (IGROV1 ovarian): 75 µM
- GI50 (MDA-MB-435): 2.37 µM
- TGI (MDA-MB-435): 5.21 µM

SMILES: Cn1c(=O)n(C)c2cc(CNCCNc3ccnc4cc(Cl)ccc34)ccc21
- GI50 (CCRF-CEM leukemia): 30.7 µM
- TGI (CCRF-CEM leukemia): > 100 µM
- GI50 (HL-60(TB) leukemia): 25.1 µM
- TGI (HL-60(TB) leukemia): 91.2 µM
- GI50 (HCC-2998 colon): 20.2 µM
- TGI (HCC-2998 colon): 52.9 µM
- GI50 (OVCAR-4 ovarian): 26.1 µM
- TGI (OVCAR-4 ovarian): > 100 µM
- GI50 (MOLT-4 leukemia): 21.1 µM
- TGI (MOLT-4 leukemia): > 100 µM
- GI50 (PC-3 prostate): 34.6 µM
- TGI (PC-3 prostate): > 100 µM
- GI50 (LOX IMVI melanoma): 14.3 µM
- TGI (LOX IMVI melanoma): 30.1 µM
- GI50 (SNB-19 CNS): 27.9 µM
- TGI (SNB-19 CNS): > 100 µM
- GI50 (IGROV1 ovarian): 37.4 µM
- TGI (IGROV1 ovarian): > 100 µM
- GI50 (MDA-MB-435): 15.8 µM
- TGI (MDA-MB-435): 31.9 µM

SMILES: CC(=O)c1ccc2c(c1)N(CCCN1CCN(CCO)CC1)c1ccccc1S2
- GI50 (CCRF-CEM leukemia): 1.68 µM
- TGI (CCRF-CEM leukemia): 5.53 µM
- GI50 (HL-60(TB) leukemia): 2.12 µM
- TGI (HL-60(TB) leukemia): 4.83 µM
- GI50 (HCC-2998 colon): 1.71 µM
- TGI (HCC-2998 colon): 3.2 µM
- GI50 (OVCAR-4 ovarian): 3.98 µM
- TGI (OVCAR-4 ovarian): 14.7 µM
- GI50 (MOLT-4 leukemia): 2.99 µM
- TGI (MOLT-4 leukemia): 8.86 µM
- GI50 (PC-3 prostate): 2.4 µM
- TGI (PC-3 prostate): 9.35 µM
- GI50 (LOX IMVI melanoma): 1.68 µM
- TGI (LOX IMVI melanoma): 3.26 µM
- GI50 (SNB-19 CNS): 2.44 µM
- TGI (SNB-19 CNS): 6.97 µM
- GI50 (IGROV1 ovarian): 2.16 µM
- TGI (IGROV1 ovarian): 6.12 µM
- GI50 (MDA-MB-435): 1.72 µM
- TGI (MDA-MB-435): 3.52 µM

SMILES: CCCN(CCC)c1ccc(C=O)c(Cl)c1
- GI50 (CCRF-CEM leukemia): 35.5 µM
- TGI (CCRF-CEM leukemia): > 100 µM
- GI50 (HL-60(TB) leukemia): 27.8 µM
- TGI (HL-60(TB) leukemia): 76.1 µM
- GI50 (HCC-2998 colon): 19.4 µM
- TGI (HCC-2998 colon): > 100 µM
- GI50 (OVCAR-4 ovarian): 0.78 µM
- TGI (OVCAR-4 ovarian): 14.2 µM
- GI50 (MOLT-4 leukemia): 29.6 µM
- TGI (MOLT-4 leukemia): 97.1 µM
- GI50 (PC-3 prostate): 29.1 µM
- TGI (PC-3 prostate): > 100 µM
- GI50 (LOX IMVI melanoma): 23.4 µM
- TGI (LOX IMVI melanoma): > 63.7 µM
- GI50 (SNB-19 CNS): 25.8 µM
- TGI (SNB-19 CNS): > 100 µM
- GI50 (IGROV1 ovarian): 0.558 µM
- TGI (IGROV1 ovarian): 7.18 µM
- GI50 (MDA-MB-435): 25.2 µM
- TGI (MDA-MB-435): > 87.8 µM
